In patent publication US20220220128A1, “HETEROCYCLIC COMPOUNDS AS KINASE INHIBITORS, COMPOSITIONS COMPRISING THE HETEROCYCLIC COMPOUND, AND METHODS OF USE THEREOF” (JS Innopharm (Shanghai) Ltd, priority 2019, published 2022):

Key:
[1] = biological target: T1, BAF3-KIF5B-RET cells (Homo sapiens, UniProt P07949); test: BAF3-KIF5B-RET Cell proliferation assay (CellTiter-Glo, 72 hours); assay type: cell-based; conditions: growth inhibition, read-out: BA/F3-KIF5B-RET Cellular activity
T1 construct: fused on or other part: P33176 (Kinesin-1 heavy chain)
T1 sequence (P07949 whole entry, change not shown, the tested form may be a part): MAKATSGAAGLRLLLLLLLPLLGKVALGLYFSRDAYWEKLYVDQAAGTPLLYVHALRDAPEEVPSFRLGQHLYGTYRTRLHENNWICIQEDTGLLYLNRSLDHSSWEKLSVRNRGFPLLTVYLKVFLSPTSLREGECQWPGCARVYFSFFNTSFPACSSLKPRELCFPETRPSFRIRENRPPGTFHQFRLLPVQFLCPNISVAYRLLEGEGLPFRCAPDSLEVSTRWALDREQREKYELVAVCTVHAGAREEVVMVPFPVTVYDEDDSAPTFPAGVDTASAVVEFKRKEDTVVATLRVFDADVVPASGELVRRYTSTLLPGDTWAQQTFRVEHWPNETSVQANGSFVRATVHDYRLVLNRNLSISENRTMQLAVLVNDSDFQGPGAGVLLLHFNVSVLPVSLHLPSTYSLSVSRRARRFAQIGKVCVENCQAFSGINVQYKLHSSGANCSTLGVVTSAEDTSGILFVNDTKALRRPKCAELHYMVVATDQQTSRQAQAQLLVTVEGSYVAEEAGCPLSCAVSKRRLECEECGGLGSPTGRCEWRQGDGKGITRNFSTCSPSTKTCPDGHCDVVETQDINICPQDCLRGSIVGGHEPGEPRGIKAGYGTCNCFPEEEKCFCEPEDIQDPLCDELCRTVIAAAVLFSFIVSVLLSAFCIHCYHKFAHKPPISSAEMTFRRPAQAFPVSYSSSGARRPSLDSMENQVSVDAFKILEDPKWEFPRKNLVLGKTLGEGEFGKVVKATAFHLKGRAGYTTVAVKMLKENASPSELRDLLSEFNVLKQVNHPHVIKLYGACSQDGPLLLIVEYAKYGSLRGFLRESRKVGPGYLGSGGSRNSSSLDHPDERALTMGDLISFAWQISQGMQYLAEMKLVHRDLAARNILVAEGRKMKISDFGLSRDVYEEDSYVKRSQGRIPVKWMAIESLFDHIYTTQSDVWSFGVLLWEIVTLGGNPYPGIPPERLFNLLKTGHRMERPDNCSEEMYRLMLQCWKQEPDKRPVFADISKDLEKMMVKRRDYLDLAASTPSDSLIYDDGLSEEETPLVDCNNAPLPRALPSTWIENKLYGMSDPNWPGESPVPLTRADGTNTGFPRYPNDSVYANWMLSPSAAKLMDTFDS
Method: Compounds disclosed herein were tested for the inhibition of RET by a cancer cell proliferation assay commonly known as CellTiter-Glo assay. In this assay, a complete media was prepared by adding 10% fetal bovine serum to RPMI-1640 medium (Life technology) for BAF3-FIF5B-RET cells. BAF3-KIF5B-RET cells were added to each of 88 wells of a 96 well plate at a seeding density of 2,000 cells/well/95 μL. The cells were allowed to attach to the plate by incubating at 37° C. for 24 hours. The compound was dissolved in DMSO (SIGMA). A solution of test compound was prepared in complete media by serial dilution to obtain the following concentrations: 20 μM, 6.67 μM, 2.22 μM, 0.74 μM, 0.25 μM, 0.082 μM, 0.027 μM, 0.0091 μM and 0.0030 μM. The test compound solution (5 μL) was added to each of 80 cell-containing wells. The final concentrations of the compound were following: 1 μM, 0.33 μM, 0.11 μM, 0.037 μM, 0.012 μM, 0.0041 μM, 0.0014 μM, 0.00046 μM and 0.00015 μM. The final concentration of DMSO is 0.1%. To the 8 remaining cell-containing wells, only complete media (containing 0.1% DMSO) was added to form a control group in order to measure maximal proliferation. To the remaining 8 empty wells, complete media was added to for a vehicle control group in order to measure background. The plates were incubated at 37° C. for 72 hours. 50 μl of CellTiter-Glo® Reagent was added to each well. Mix contents for 2 minutes on an orbital shaker to induce cell lysis. Incubate at room temperature for 10 minutes to stabilize luminescent signal. Record luminescence on Paradigm. Cell viability (CV %) was calculated relative to vehicle (DMSO) treated control wells. The IC50 was calculated using GraphPad Prism.

[2] = biological target: T2, human RET kinase (Homo sapiens, UniProt P07949); test: RET Kinase Assay (LanthaScreen TR-FRET enzymatic assay); assay type: biochemical; conditions: 7 nM RET, 23 μM ATP
T2 construct: purchased Carna 08-159
T2 sequence (P07949 29-1114): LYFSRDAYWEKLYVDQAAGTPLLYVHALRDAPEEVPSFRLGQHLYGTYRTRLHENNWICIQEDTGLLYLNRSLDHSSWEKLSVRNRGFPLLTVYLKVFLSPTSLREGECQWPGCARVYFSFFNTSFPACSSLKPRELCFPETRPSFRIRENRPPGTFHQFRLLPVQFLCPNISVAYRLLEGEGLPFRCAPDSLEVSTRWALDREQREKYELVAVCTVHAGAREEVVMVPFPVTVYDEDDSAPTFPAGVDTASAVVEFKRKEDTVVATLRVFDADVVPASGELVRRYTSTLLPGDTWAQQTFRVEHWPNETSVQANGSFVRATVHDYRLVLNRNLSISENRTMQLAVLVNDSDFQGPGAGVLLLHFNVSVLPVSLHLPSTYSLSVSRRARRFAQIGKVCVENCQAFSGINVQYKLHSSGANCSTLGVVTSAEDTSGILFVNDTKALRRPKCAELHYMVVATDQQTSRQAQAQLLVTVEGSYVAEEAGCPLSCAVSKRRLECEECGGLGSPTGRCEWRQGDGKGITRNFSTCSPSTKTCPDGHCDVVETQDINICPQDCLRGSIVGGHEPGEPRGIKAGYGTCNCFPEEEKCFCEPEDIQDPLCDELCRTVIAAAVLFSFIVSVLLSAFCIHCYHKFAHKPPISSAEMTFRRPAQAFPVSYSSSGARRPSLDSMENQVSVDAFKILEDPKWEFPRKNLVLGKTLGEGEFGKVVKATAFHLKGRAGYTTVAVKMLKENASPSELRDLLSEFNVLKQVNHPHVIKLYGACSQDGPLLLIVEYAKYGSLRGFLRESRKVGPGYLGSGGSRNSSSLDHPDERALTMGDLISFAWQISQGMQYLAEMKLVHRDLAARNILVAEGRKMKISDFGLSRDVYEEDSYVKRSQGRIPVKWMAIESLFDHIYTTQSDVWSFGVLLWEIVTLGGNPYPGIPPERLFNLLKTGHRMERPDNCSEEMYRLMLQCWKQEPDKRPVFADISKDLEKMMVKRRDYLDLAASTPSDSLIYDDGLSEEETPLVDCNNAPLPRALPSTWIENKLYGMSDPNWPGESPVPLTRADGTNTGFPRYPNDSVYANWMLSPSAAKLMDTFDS
Summary of the method: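 Human RET (7 nM) preincubated 15 min with compound in 50 mM HEPES pH 7.5, 0.0015% Brij-35, then reacted with 3 μM FAM-P2 peptide and 23 μM ATP for 1 h at 28° C.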

[3] = biological target: T3, human KDR kinase (Homo sapiens, UniProt P35968); test: KDR Kinase Assay (LanthaScreen TR-FRET enzymatic assay); assay type: biochemical; conditions: 1.2 nM KDR, 92 μM ATP
T3 construct: purchased Carna 08-191
T3 sequence (P35968 20-1356): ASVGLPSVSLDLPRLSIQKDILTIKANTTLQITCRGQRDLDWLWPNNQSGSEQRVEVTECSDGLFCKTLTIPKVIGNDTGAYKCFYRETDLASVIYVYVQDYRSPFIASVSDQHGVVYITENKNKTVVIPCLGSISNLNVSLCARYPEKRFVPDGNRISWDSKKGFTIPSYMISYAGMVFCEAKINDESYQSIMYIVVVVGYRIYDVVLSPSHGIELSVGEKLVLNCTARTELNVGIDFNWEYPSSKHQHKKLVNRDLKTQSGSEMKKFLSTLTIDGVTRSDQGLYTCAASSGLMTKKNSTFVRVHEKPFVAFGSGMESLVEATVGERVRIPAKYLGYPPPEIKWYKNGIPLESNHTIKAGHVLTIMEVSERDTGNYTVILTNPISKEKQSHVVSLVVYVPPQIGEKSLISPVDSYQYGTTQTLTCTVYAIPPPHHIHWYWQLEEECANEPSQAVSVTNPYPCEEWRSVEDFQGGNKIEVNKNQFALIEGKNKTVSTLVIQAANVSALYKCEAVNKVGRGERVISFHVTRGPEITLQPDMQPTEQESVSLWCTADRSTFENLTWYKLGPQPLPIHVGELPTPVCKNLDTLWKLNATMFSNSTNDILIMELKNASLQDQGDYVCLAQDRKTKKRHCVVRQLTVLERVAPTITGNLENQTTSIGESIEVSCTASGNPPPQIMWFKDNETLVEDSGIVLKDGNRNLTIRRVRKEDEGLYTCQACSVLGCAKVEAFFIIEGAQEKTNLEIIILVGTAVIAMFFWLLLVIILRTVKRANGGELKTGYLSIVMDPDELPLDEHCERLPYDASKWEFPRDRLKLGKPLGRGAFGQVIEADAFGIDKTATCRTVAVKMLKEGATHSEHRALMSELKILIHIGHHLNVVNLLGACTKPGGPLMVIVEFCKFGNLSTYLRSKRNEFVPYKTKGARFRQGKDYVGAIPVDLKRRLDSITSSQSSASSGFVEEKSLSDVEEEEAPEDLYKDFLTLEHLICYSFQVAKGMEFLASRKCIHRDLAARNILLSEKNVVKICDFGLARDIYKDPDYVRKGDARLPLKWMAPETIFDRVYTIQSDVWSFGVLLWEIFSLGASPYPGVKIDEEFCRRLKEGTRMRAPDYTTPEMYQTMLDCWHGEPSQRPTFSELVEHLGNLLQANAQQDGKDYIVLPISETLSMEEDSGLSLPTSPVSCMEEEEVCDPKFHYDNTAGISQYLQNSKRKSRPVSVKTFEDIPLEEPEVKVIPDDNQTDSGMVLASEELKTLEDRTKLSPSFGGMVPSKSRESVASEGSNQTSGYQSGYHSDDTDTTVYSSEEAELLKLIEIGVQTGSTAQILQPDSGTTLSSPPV
Summary of the method: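 Recombinant human KDR (1.2 nM) preincubated 15 min at room temperature with compound, then reacted with 3 μM FAM-P22 peptide and 92 μM ATP in 50 mM HEPES pH 7.5 for 1 h at 28° C. EDTA stop, then TR-FRET acceptor/donor ratio read; percent of 1% DMSO control fitted sigmoidally for IC50.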

[4] = system: TT cells; test: TT Cell Proliferation Assay (WST-8, 8 days); assay type: cell-based; conditions: Homo sapiens, TT, 192 h, growth inhibition in TT cells, read-out: TT Cellular Activity
Summary of the method: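 TT cells, 6,000/well in RPMI-1640 with 10% FBS, attached 24 h, then exposed to compound at 5 μM down to 0.0005 μM final (0.5% DMSO) for 8 days at 37 °C. WST-8 added for 5 h, absorbance at 450 nm. IC50 calculated from the dilution series.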

`CC(C)(O)COc1cc(-c2cnc(N3C[C@H]4CN(Cc5ccc(C#N)nc5)C[C@H]4C3)cn2)c2c(C#N)cnn2c1` [Example 177, 4-(5-((3aR,6aS)-5-((6-cyanopyridin-3-yl)methyl)hexahydropyrrolo[3,4-c]pyrrol-2(1H)-yl)pyrazin-2-yl)-6-(2-hydroxy-2-methylpropoxy)pyrazolo[1,5-a]pyridine-3-carbonitrile] showed a GI50 [1] of over 100 nM and an IC50 [2] of 50 to 100 nM.

`CC(C)(O)COc1cc(-c2cnc(N3C4CC5CC3CC(NC(=O)c3ncccc3F)(C5)C4)cn2)c2c(C#N)cnn2c1` [Example 168, N-((1R,3S,5s,7s)-2-(5-(3-cyano-6-(2-hydroxy-2-methylpropoxy)pyrazolo[1,5-a]pyridin-4-yl)pyrazin-2-yl)-2-azaadamantan-5-yl)-3-fluoropicolinamide] showed a GI50 [1] of 10 to 50 nM and an IC50 [2] of at most 10 nM.

Compound `COc1ccnc(C(=O)N[C@]2(C)C[C@H]3CN(c4cnc(-c5cc(-c6cnn(C)c6)cn6ncc(C#N)c56)cn4)C[C@H]3C2)c1` [Example 149, N-((3aR,5s,6aS)-2-(5-(3-cyano-6-(1-methyl-1H-pyrazol-4-yl)pyrazolo[1,5-a]pyridin-4-yl)pyrazin-2-yl)-5-methyloctahydrocyclopenta[c]pyrrol-5-yl)-4-methoxypicolinamide] has a GI50 [1] of at most 10 nM and an IC50 [2] of at most 10 nM.

With `CC(C)(O)COc1cc(-c2ccc(N3C[C@H]4C[C@@H](NC(=O)c5ncccc5Cl)C[C@H]4C3)nc2)c2c(C#N)cnn2c1` [Example 106, 3-chloro-N-((3aR,5r,6aS)-2-(5-(3-cyano-6-(2-hydroxy-2-methylpropoxy)pyrazolo[1,5-a]pyridin-4-yl)pyridin-2-yl)octahydrocyclopenta[c]pyrrol-5-yl)picolinamide] the GI50 [1] was at most 10 nM and the IC50 [2] was at most 10 nM.

`COc1ccc(C(=O)N[C@@H]2C[C@@H]3CN(c4ccc(-c5cc(OCC(C)(C)O)cn6ncc(C#N)c56)cn4)C[C@@H]3C2)cn1` [Example 159, N-((3aR,5r,6aS)-2-(5-(3-cyano-6-(2-hydroxy-2-methylpropoxy)pyrazolo[1,5-a]pyridin-4-yl)pyridin-2-yl)octahydrocyclopenta[c]pyrrol-5-yl)-6-methoxynicotinamide] was tested, and the GI50 [1] was 10 to 50 nM and the IC50 [2] was 10 to 50 nM.

For `Cn1ccc(-c2cc(-c3ccc(N4C[C@@H]5C[C@@](C)(NC(=O)c6ncccc6C#N)C[C@@H]5C4)nc3)c3c(C#N)cnn3c2)n1` [Example 198, 3-cyano-N-((3aR,5s,6aS)-2-(5-(3-cyano-6-(1-methyl-1H-pyrazol-3-yl)pyrazolo[1,5-a]pyridin-4-yl)pyridin-2-yl)-5-methyloctahydrocyclopenta[c]pyrrol-5-yl)picolinamide], the IC50 [3] was 50 to 100 nM, the IC50 [2] was 10 to 50 nM and the IC50 [4] was 10 to 50 nM.

Compound `CCOc1cc(-c2ccc(N3C[C@@H]4C[C@@](C)(NC(=O)CC(C)C)C[C@@H]4C3)nc2)c2c(C#N)cnn2c1` [Example 62, N-((3aR,5s,6aS)-2-(5-(3-cyano-6-ethoxypyrazolo[1,5-a]pyridin-4-yl)pyridin-2-yl)-5-methyloctahydrocyclopenta[c]pyrrol-5-yl)-3-methylbutanamide] has an IC50 [3] of 50 to 100 nM, an IC50 [2] of at most 10 nM and an IC50 [4] of 10 to 50 nM.

Compound `CC(C)C(O)C(=O)NC12CC3CC(C1)N(c1ccc(-c4cc(OCC(C)(C)O)cn5ncc(C#N)c45)cn1)C(C3)C2` [Example 99, N-((1R,3 S,5s,7s)-2-(5-(3-cyano-6-(2-hydroxy-2-methylpropoxy)pyrazolo[1,5-a]pyridin-4-yl)pyridin-2-yl)-2-azaadamantan-5-yl)-2-hydroxy-3-methylbutanamide] has an IC50 [3] of 10 to 50 nM, an IC50 [2] of at most 10 nM and an IC50 [4] of 10 to 50 nM.

With `CCOc1cc(-c2ccc(N3C[C@@H]4C[C@@](C)(NC(=O)c5cc(F)ccc5Cl)C[C@@H]4C3)nc2)c2c(C#N)cnn2c1` [Example 68, 2-chloro-N-((3aR,5s,6aS)-2-(5-(3-cyano-6-ethoxypyrazolo[1,5-a]pyridin-4-yl)pyridin-2-yl)-5-methyloctahydrocyclopenta[c]pyrrol-5-yl)-5-fluorobenzamide] the IC50 [3] was 50 to 100 nM, the IC50 [2] was at most 10 nM and the IC50 [4] was 10 to 50 nM.

For `CCOc1cc(-c2cnc(N3C[C@@H]4[C@H](C3)[C@H]4NC(=O)c3ncccc3Cl)cn2)c2c(C#N)cnn2c1` [Example 42, 3-chloro-N-((1R,5S,6s)-3-(5-(3-cyano-6-ethoxypyrazolo[1,5-a]pyridin-4-yl)pyrazin-2-yl)-3-azabicyclo[3.1.0]hexan-6-yl)picolinamide], the IC50 [3] was over 100 nM, the IC50 [2] was 50 to 100 nM and the IC50 [4] was over 100 nM.

Work on `Cn1cc(-c2cc(-c3ccc(N4C[C@@H]5C[C@@](C)(NS(=O)(=O)c6c(F)cccc6Cl)C[C@@H]5C4)nc3)c3c(C#N)cnn3c2)cn1` [Example 59, 2-chloro-N-((3aR,5s,6aS)-2-(5-(3-cyano-6-(1-methyl-1H-pyrazol-4-yl)pyrazolo[1,5-a]pyridin-4-yl)pyridin-2-yl)-5-methyloctahydrocyclopenta[c]pyrrol-5-yl)-6-fluorobenzenesulfonamide] yielded an IC50 [3] of at most 10 nM, an IC50 [2] of at most 10 nM and an IC50 [4] of at most 10 nM.

`Cn1cc(-c2cc(-c3ccc(N4C[C@@H]5[C@H](C4)[C@H]5NC(=O)c4c(F)cccc4Cl)nc3)c3c(C#N)cnn3c2)cn1` [Example 24, 2-chloro-N-((1R,5S,6s)-3-(5-(3-cyano-6-(1-methyl-1H-pyrazol-4-yl)pyrazolo[1,5-a]pyridin-4-yl)pyridin-2-yl)-3-azabicyclo[3.1.0]hexan-6-yl)-6-fluorobenzamide] gave an IC50 [3] of at most 10 nM, an IC50 [2] of at most 10 nM and an IC50 [4] of 10 to 50 nM.

For `Cn1cc(-c2cc(-c3ccc(N4C[C@@H]5[C@@H](CNC(=O)C(C)(C)C)[C@@H]5C4)nc3)c3c(C#N)cnn3c2)cn1` [Example 87, N-(((1R,5S,6s)-3-(5-(3-cyano-6-(1-methyl-1H-pyrazol-4-yl)pyrazolo[1,5-a]pyridin-4-yl)pyridin-2-yl)-3-azabicyclo[3.1.0]hexan-6-yl)methyl)pivalamid], the IC50 [3] was 10 to 50 nM, the IC50 [2] was at most 10 nM and the IC50 [4] was at most 10 nM.

With `Cc1ccc(Cl)c(C(=O)NC[C@@H]2[C@H]3CN(c4ccc(-c5cc(-c6cnn(C)c6)cn6ncc(C#N)c56)cn4)C[C@@H]23)n1` [Example 82, 3-chloro-N-(((1R,5S,6s)-3-(5-(3-cyano-6-(1-methyl-1H-pyrazol-4-yl)pyrazolo[1.5-a]pyridin-4-yl)pyridin-2-yl)-3-azabicyclo[3.1.0]hexan-6-yl)methyl)-6-methylpicolinamide] the IC50 [3] was at most 10 nM, the IC50 [2] was at most 10 nM and the IC50 [4] was at most 10 nM.

`Cc1cccc(Cl)c1C(=O)NC[C@@H]1[C@H]2CN(c3ccc(-c4cc(-c5cnn(C)c5)cn5ncc(C#N)c45)cn3)C[C@@H]12` [Example 185, 2-chloro-N-(((1R,5S,6s)-3-(5-(3-cyano-6-(1-methyl-1H-pyrazol-4-yl)pyrazolo[1,5-a]pyridin-4-yl)pyridin-2-yl)-3-azabicyclo[3.1.0]hexan-6-yl)methyl)-6-methylbenzamide] was tested, and the IC50 [3] was at most 10 nM, the IC50 [2] was at most 10 nM and the IC50 [4] was 10 to 50 nM.

Work on `CC(O)COc1cc(-c2ccc(N3C[C@@H]4[C@@H](CNC(=O)c5ncccc5Cl)[C@@H]4C3)nc2)c2c(C#N)cnn2c1` (stereo partly drawn) [Example 124, 3-chloro-N-(((1R,5S,6s)-3-(5-(3-cyano-6-(2-hydroxypropoxy)pyrazolo[1,5-a]pyridin-4-yl)pyridin-2-yl)-3-azabicyclo[3.1.0]hexan-6-yl)methyl)picolinamide] yielded an IC50 [3] of over 100 nM, an IC50 [2] of at most 10 nM and an IC50 [4] of 10 to 50 nM.

`Cn1cc(-c2cc(-c3ccc(N4C[C@@H]5[C@H](C4)[C@@H]5NS(=O)(=O)c4c(F)cccc4Cl)nc3)c3c(C#N)cnn3c2)cn1` [Example 35, 2-chloro-N-((1R,5S,6r)-3-(5-(3-cyano-6-(1-methyl-1H-pyrazol-4-yl)pyrazolo[1,5-a]pyridin-4-yl)pyridin-2-yl)-3-azabicyclo[3.1.0]hexan-6-yl)-6-fluorobenzenesulfonamide] showed an IC50 [3] of 10 to 50 nM, an IC50 [2] of at most 10 nM and an IC50 [4] of 10 to 50 nM.
